Measured values from US10206394B2, “Herbicidal compounds” (Syngenta Participations AG, priority 2014, dated 2019).
Read-outs that look alike come from different tables or passages of the source.

Assays:
Test in all cases: Glasshouse assay for herbicidal activity (pre- and post-emergence), percentage phytotoxicity
Type in all cases: in vivo
[1] = system: Echinochloa crus-galli (ECHCG); settings: Echinochloa crus-galli
How it was run: (§1)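 Visually rated damage, 0–100%. PRE spray 1 d after sowing, scored 20 DAA; POST spray ~12 d, scored 15 DAA. Glasshouse at 65% humidity, 16 h day.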

Avena fatua (AVEFA) = settings: Avena fatua
How it was run: as §1

Lolium perenne (LOLPE) = settings: Lolium perenne
How it was run: as §1

[2] = system: Alopecurus myosuroides (ALOMY); settings: Alopecurus myosuroides
How it was run: as §1

[3] = post-emergence, 360 h, POST-emergence, rate 250 g/ha, visual score 15 DAA (100%=total damage, 0%=no damage), read-out: Post-emergence herbicidal activity (percentage phytotoxicity) ECHCG POST
[4] = pre-emergence, 480 h, PRE-emergence, rate 250 g/ha, visual score 20 DAA (100%=total damage, 0%=no damage), read-out: Pre-emergence herbicidal activity (percentage phytotoxicity) ECHCG PRE
[5] = post-emergence, 360 h, POST-emergence, rate 250 g/ha, visual score 15 DAA (100%=total damage, 0%=no damage), read-out: Post-emergence herbicidal activity (percentage phytotoxicity) AVEFA POST
[6] = pre-emergence, 480 h, PRE-emergence, rate 250 g/ha, visual score 20 DAA (100%=total damage, 0%=no damage), read-out: Pre-emergence herbicidal activity (percentage phytotoxicity) AVEFA PRE
[7] = post-emergence, 360 h, POST-emergence, rate 250 g/ha, visual score 15 DAA (100%=total damage, 0%=no damage), read-out: Post-emergence herbicidal activity (percentage phytotoxicity) LOLPE POST
[8] = pre-emergence, 480 h, PRE-emergence, rate 250 g/ha, visual score 20 DAA (100%=total damage, 0%=no damage), read-out: Pre-emergence herbicidal activity (percentage phytotoxicity) LOLPE PRE
[9] = post-emergence, 360 h, POST-emergence, rate 250 g/ha, visual score 15 DAA (100%=total damage, 0%=no damage), read-out: Post-emergence herbicidal activity (percentage phytotoxicity) ALOMY POST
[10] = pre-emergence, 480 h, PRE-emergence, rate 250 g/ha, visual score 20 DAA (100%=total damage, 0%=no damage), read-out: Pre-emergence herbicidal activity (percentage phytotoxicity) ALOMY PRE
[11] = post-emergence, 360 h, 250 g/ha, post-emergence, 15 DAA, visual assessment (100%=total damage, 0%=no damage), read-out: Post-emergence herbicidal activity (percentage phytotoxicity) ECHCG POST
[12] = pre-emergence, 480 h, 250 g/ha, pre-emergence, 20 DAA, visual assessment (100%=total damage, 0%=no damage), read-out: Pre-emergence herbicidal activity (percentage phytotoxicity) ECHCG PRE
[13] = post-emergence, 360 h, 250 g/ha, post-emergence, 15 DAA, visual assessment (100%=total damage, 0%=no damage), read-out: Post-emergence herbicidal activity (percentage phytotoxicity) AVEFA POST
[14] = pre-emergence, 480 h, 250 g/ha, pre-emergence, 20 DAA, visual assessment (100%=total damage, 0%=no damage), read-out: Pre-emergence herbicidal activity (percentage phytotoxicity) AVEFA PRE
[15] = post-emergence, 360 h, 250 g/ha, post-emergence, 15 DAA, visual assessment (100%=total damage, 0%=no damage), read-out: Post-emergence herbicidal activity (percentage phytotoxicity) LOLPE POST
[16] = pre-emergence, 480 h, 250 g/ha, pre-emergence, 20 DAA, visual assessment (100%=total damage, 0%=no damage), read-out: Pre-emergence herbicidal activity (percentage phytotoxicity) LOLPE PRE
[17] = post-emergence, 360 h, 250 g/ha, post-emergence, 15 DAA, visual assessment (100%=total damage, 0%=no damage), read-out: Post-emergence herbicidal activity (percentage phytotoxicity) ALOMY POST
[18] = pre-emergence, 480 h, 250 g/ha, pre-emergence, 20 DAA, visual assessment (100%=total damage, 0%=no damage), read-out: Pre-emergence herbicidal activity (percentage phytotoxicity) ALOMY PRE

Compound `Cc1cc(-c2ncc(F)cc2F)cc(C)c1C1C(=O)CC(CC(=O)N(C)C(C)(C)C)C1=O` (stereo not drawn) [Compound B267] has a pest or weed control at 250 g/ha [1, 3] of 100%, a pest or weed control at 250 g/ha [1, 4] of 100% and a pest or weed control at 250 g/ha (Avena fatua (AVEFA); [5]) of 100%. It also gave a pest or weed control at 250 g/ha (Avena fatua (AVEFA); [6]) of 80%, a pest or weed control at 250 g/ha (Lolium perenne (LOLPE); [7]) of 100% and a pest or weed control at 250 g/ha (Lolium perenne (LOLPE); [8]) of 100%. The pest or weed control at 250 g/ha [2, 9] was 100% and the pest or weed control at 250 g/ha [2, 10] was 100%.

In the case of `Cc1cc(C)c(C2C(=O)CC(CC(=O)NC(C)CC3CCCC3)C2=O)c(C)c1` (stereo not drawn) [Compound B28], the pest or weed control at 250 g/ha [1, 11] is reported as 70%, the pest or weed control at 250 g/ha [1, 12] is reported as 60% and the pest or weed control at 250 g/ha (Avena fatua (AVEFA); [13]) is reported as 60%. It also gave a pest or weed control at 250 g/ha (Avena fatua (AVEFA); [14]) of 50%, a pest or weed control at 250 g/ha (Lolium perenne (LOLPE); [15]) of 50% and a pest or weed control at 250 g/ha (Lolium perenne (LOLPE); [16]) of 80%. It also gave a pest or weed control at 250 g/ha [2, 17] of 50% and a pest or weed control at 250 g/ha [2, 18] of 50%.

`CC#CC(C)(C)NC(=O)CC1CC(=O)C(c2c(C)cc(C)cc2C)C1=O` (stereo not drawn) [Compound B35] showed a pest or weed control at 250 g/ha [1, 11] of 70%, a pest or weed control at 250 g/ha [1, 12] of 80% and a pest or weed control at 250 g/ha (Avena fatua (AVEFA); [13]) of 70%. It also gave a pest or weed control at 250 g/ha (Avena fatua (AVEFA); [14]) of 0%, a pest or weed control at 250 g/ha (Lolium perenne (LOLPE); [15]) of 70% and a pest or weed control at 250 g/ha (Lolium perenne (LOLPE); [16]) of 80%. The pest or weed control at 250 g/ha [2, 17] was 80% and the pest or weed control at 250 g/ha [2, 18] was 90%.

`C/C=C/c1cc(C)c(C2C(=O)CC(CC(=O)NCc3ccc(OC)cc3)C2=O)c(C)c1` (stereo not drawn) [Compound B243] was tested, and the pest or weed control at 250 g/ha [1, 3] was 90%, the pest or weed control at 250 g/ha [1, 4] was 0% and the pest or weed control at 250 g/ha (Avena fatua (AVEFA); [5]) was 50%. The pest or weed control at 250 g/ha (Avena fatua (AVEFA); [6]) was 0%, the pest or weed control at 250 g/ha (Lolium perenne (LOLPE); [7]) was 70% and the pest or weed control at 250 g/ha (Lolium perenne (LOLPE); [8]) was 0%. It also gave a pest or weed control at 250 g/ha [2, 9] of 80% and a pest or weed control at 250 g/ha [2, 10] of 0%.

`CCNC(=O)CC1CC(=O)C(c2c(C)cc(-n3cc(Cl)cn3)cc2C)C1=O` (stereo not drawn) [Compound B307] gave a pest or weed control at 250 g/ha [1, 3] of 100%, a pest or weed control at 250 g/ha [1, 4] of 100% and a pest or weed control at 250 g/ha (Avena fatua (AVEFA); [5]) of 100%. For the same compound, the pest or weed control at 250 g/ha (Avena fatua (AVEFA); [6]) was 100%, the pest or weed control at 250 g/ha (Lolium perenne (LOLPE); [7]) was 90% and the pest or weed control at 250 g/ha (Lolium perenne (LOLPE); [8]) was 100%. For the same compound, the pest or weed control at 250 g/ha [2, 9] was 90% and the pest or weed control at 250 g/ha [2, 10] was 100%.

`Cc1cc(-c2ncc(Cl)cc2F)cc(C)c1C1C(=O)CC(CC(=O)NCC2CC2(F)F)C1=O` (stereo not drawn) [Compound B197] gave a pest or weed control at 250 g/ha [1, 3] of 100%, a pest or weed control at 250 g/ha [1, 4] of 100% and a pest or weed control at 250 g/ha (Avena fatua (AVEFA); [5]) of 100%. The pest or weed control at 250 g/ha (Avena fatua (AVEFA); [6]) was 90%, the pest or weed control at 250 g/ha (Lolium perenne (LOLPE); [7]) was 100% and the pest or weed control at 250 g/ha (Lolium perenne (LOLPE); [8]) was 90%. It also gave a pest or weed control at 250 g/ha [2, 9] of 100% and a pest or weed control at 250 g/ha [2, 10] of 100%.
